Entries after “also recorded” stand apart in the source; their conditions may differ. Where two headings read alike, the source gives them in different places.
What was measured:
[1] = system: human gastric carcinoma cell line BGC-823; experiment: MTT cytotoxicity assay, BGC-823; assay type: cell-based; conditions: read-out: Cytotoxic activity (IC50) BGC-823
Protocol: (§1) Cytotoxicity assays were performed on the human gastric carcinoma cell line BGC-823, the human lung adenocarcinoma cell line A549, the human hepatocellular liver carcinoma HepG2, and the normal human hepatic immortal cell line HL-7702. Cells (3500–13,000) were seeded into 96-well microtest plates in 100 μL of culture medium per well (Falcon, CA). The cells were treated in triplicate with a gradient concentration of test compounds and incubated at 37 °C in RPMI-1640 with 100 mg L^−1 kanamycin and 10% (v/v) fetal bovine serum in a humidified atmosphere containing 5% CO2 for 48 h. The plating efficiencies of the untreated cells varied between experiments with values ranging from 14 to 31% for the HL-7702 cells. For all cell lines, microculture tetrazolium [3-(4, 5-dimethylthiazol-2-yl)−2, 5-diphenyltetrazolium bromide, MTT; Sigma, St. Louis, MO] assay was performed to measure cytotoxic effects. […] The initial seeding densities varied among the cell lines to ensure a final absorbance reading in control (untreated) cultures within the range of 0.6–0.8 A492 units. […] Each test was performed in triplicate, and the absorbance readings between the triplicates varied by no more than 5%.
(§2) Data presented as means ± SD. Statistical analyses were performed by the analysis of variance (ANOVA). All statistical analyses were performed using Origin version 8.0 ([…], OriginLab Corp., Northampton, MA, USA). Sigmoidal dose responses and non-linear regression analyses were undertaken to identify half-maximal concentrations for each of the drugs. To evaluate differences in IC50 concentrations, analysis of variance combined with Tukey’s multiple range test was used.

[2] = system: human lung adenocarcinoma cell line A549; experiment: MTT cytotoxicity assay, A549; assay type: cell-based; conditions: read-out: Cytotoxic activity (IC50) A549
Protocol: as §1, §2

[3] = system: human hepatocellular liver carcinoma HepG2; experiment: MTT cytotoxicity assay, HepG2; assay type: cell-based; conditions: read-out: Cytotoxic activity (IC50) HepG2
Protocol: as §1, §2

[4] = MTT cytotoxicity assay, normal human cells HL-7720; assay type: cell-based; conditions: drug exposure 48 h, mean ± SD (n = 3), read-out: Cytotoxic activity (IC50) HL-7720
Protocol: as §1, §2

A549 cells [5] = experiment: Immunofluorescence staining of tubulin and nuclei; assay type: cell-based, human; conditions: 1 μM, 12 hours
Protocol: (§3) The degree of tubulin polymerization was evaluated through pellet mass formation in centrifugation assays in the presence of stoichiometric and semi-stoichiometric concentrations of each lignan.
Cells were fixed with 4% paraformaldehyde in phospate buffered saline (PBS), permeabilized with 0.5% Triton X-100 in PBS, and then tubulin was immunostained with monoclonal antibody to tubulin (B5-1-2, Sigma) followed by fluorescein 5-isothiocyanate (FITC) conjugated secondary antibody. Nuclei were labeled with 4′, 6-diamidino-2-phenylindole (DAPI). Fluorescence labeled tubulin and nuclei were observed using a Zeiss Axioplan fluorescence microscope, and images were captured by a XL16 Excel cooled digital camera controlled by the Dage Exponent software (Dage-MTI). Final images were prepared using Adobe Photoshop. The cells were then processed for immunofluoscence staining and confocal microscopy (× 600).

calf brain tubulin = experiment: Tubulin assembly inhibition, centrifugation assay; assay type: biochemical; conditions: 30 min at 37 °C, read-out: GI50, inhibition of tubulin polymerization
Protocol: as §3
Purification of calf brain tubulin and chemicals were followed as previously described by Andreu[20]. Ligands were dissolved in DMSO at 20 mM and kept at −80 °C. Work solutions were done in DMSO and kept at −20 °C. The 50% inhibitory ligand concentration of tubulin assembly was determined with a centrifugation assay. Tubulin was equilibrated prior to use in 3.4 M glycerol, 1 mM EGTA, 0.1 mM GTP, pH 7.0, buffer through a 25 cm × 0.9 cm Sephadex G-25 column. Aggregates were removed by a centrifugation at 90000 g × 10 min in a TLA 120 rotor at 4 °C in an Optima TLX centrifuge. Tubulin concentration was determined as described by Andreu[21]. Tubulin was kept at 4 °C, and 0.9 mM GTP and 6 mM MgCl2 were added to the sample. The solution was distributed in 200 μL polycarbonate tubes for the TL100 rotor. […] Microtubules were separated from unassembled tubulin by a centrifugation at 90000 g × 10 min in a TLA100 rotor at 37 °C in an Optima TLX centrifuge. […] The 50% inhibitory ligand concentration of tubulin assembly was determined with a centrifugation assay that measured the decrease in the concentrations of microtubules assembled in the presence of different concentrations of the compound.

tubulin = experiment: Surface plasmon resonance binding to immobilized tubulin; conditions: 1:1 Langmuir model, HBS-T buffer pH 7.4; read-out: equilibrium dissociation constant (KD value), SPR
Protocol: as §3
Based on the surface plasmon resonance (SPR) technology, the binding affinity of compounds to tubulin was determined with the ProteOn^TM XPR36 Protein Interaction Array System (Bio-Rad, Hercules, CA). For this purpose, tubulin was dissolved in 10 mM sodium acetate buffer (pH 3.5) and immobilized to the ProteOn^TM GLH sensor chip with the ProteOn^TM amine coupling kit. The final immobilization level was 8000 RU (Response unit). […] Data were analyzed with the ProteOn^TM Manager software, fitted to the 1:1 Langmuir model.

A549 cells [6] = experiment: Cell cycle analysis (PI staining, flow cytometry); assay type: cell-based, human; conditions: for G2/M phase arrest ratio: after 24 h incubation until end of incubation
Protocol: Tubulin inhibitors block cell cycle progression in mitosis at the G2/M phase, and a prolonged mitotic arrest triggers various apoptotic pathways. […] After 24 h incubations, the G2/M phase arrest ratio remained at around 80% and 90% until the end of the incubation.
Cell cycle arrest detection in A549 cells using propidium iodide (PI) double staining treatment with different concentrations of 4-TG-PTOX (i.e., 0.1, 1, and 5 μM) for 6, 12, 24, 48 h, respectively. The A549 cell line was used for cell cycle analysis. Cells were treated in triplicate with a gradient concentration of test compounds and incubated at 37 °C in RPMI-1640 with 100 mg L^−1 kanamycin and 10% (v/v) fetal bovine serum in a humidified atmosphere containing 5% CO2 for 48 h. Untreated and drug-treated cells were centrifuged and fixed overnight in 70% ethanol at 4 °C. They were then washed three times with PBS, incubated for 1 h with 1 mg/ mL RNase A and […] propidium iodide at room temperature, and analyzed with a FACSCalibur flow cytometer (BD, USA).

A549 cells [7] = experiment: Cell apoptosis analysis (annexin V/PI flow cytometry); assay type: cell-based, human; conditions: for maximum level of apoptosis: 48 h
Protocol: After 48 h of treatment with 4-TG-PTOX, the maximum levels of apoptosis reached were 63% and 67% at 4-TG-PTOX concentrations of 1 and 5 µM, respectively.
Cell apoptosis-inducing detection in A549 cells treatment with different concentrations of 4-TG-PTOX (i.e., 0.1, 1, and 5 μM) for 6, 12, 24, 48 h, respectively. In the early stages of apoptosis, phosphatidylserine (PS) was translocated from the inside of the cell membrane to the outside. Annexin V, a calcium dependent phospholipid-binding protein associated with a high affinity for phosphatidylserine, was used to detect early apoptotic cells. Propidine Iodide (PI) was a red fluorescent dye and stained cells that had lost membrane integrity. So, cells stained with FITC-annexin V and PI were discriminated necrotic cells (Q1, Annexin-/PI +), late apoptotic cells (Q2, Annexin +/PI+), intact cells (Q3, Annexin -/PI -) and early apoptotic cells (Q4, Annexin+/PI -).

[8] = BGC-823, MTT, drug exposure 48 h, mean ± SD (n = 3)
[9] = A549, MTT, drug exposure 48 h, mean ± SD (n = 3)
[10] = HepG2, MTT, drug exposure 48 h, mean ± SD (n = 3)

Row | SMILES | IC50 [1, 8] | IC50 [2, 9] | IC50 [3, 10] | IC50 at 48 h [4] | effect on cellular microtubules (immunofluorescence) (A549 cells [5]) | GI50 (calf brain tubulin) | Kd (tubulin) | effect on nucleus (DAPI) (A549 cells [5]) | G2/M phase arrest (A549 cells [6]; A549, 0.1 μM) | G2/M phase arrest ratio (A549 cells [6]; A549, 1 μM) | G2/M phase arrest ratio (A549 cells [6]; A549, 5 μM) | ratio of apoptotic cells (A549 cells [7]; A549, 0.1 μM) | maximum level of apoptosis (A549 cells [7]; A549, 1 µM) | maximum level of apoptosis (A549 cells [7]; A549, 5 µM) | IC50 ([1]; BGC-823, 48 h) | IC50 ([2]; A549, 48 h) | IC50 ([3]; HepG2, 48 h)
1 | COc1cc2c(c(OC)c1OC)-c1ccc(OC)c(=O)cc1[C@@H](NC(C)=O)CC2 [Colchicines, colchicine] | 12.2 ± 1.26 µM | 12.2 ± 0.76 µM | 13.2 ± 0.88 µM | 6.42 ± 1.03 µM | inhibited tubulin polymerization | – | – | – | – | – | – | – | – | – | – | – | –
2 | COc1cc(C2c3cc4c(cc3C(Sc3ncnc5nc[nH]c35)C3COC(=O)C23)OCO4)cc(OC)c1OC (centres unmarked) [Compound 4-MP-PTOX] | 8.72 ± 3.15 µM | 1.12 ± 0.35 µM | 1.14 ± 1.07 µM | 11.3 ± 0.57 µM | anti-microtubule activity was observed; also recorded: inhibited tubulin polymerization | < 2 µM | 8.7 µM | not damaged | – | – | – | – | – | – | – | – | –
3 | COc1cc(C2c3cc4c(cc3C(Sc3nc(N)nc5nc[nH]c35)C3COC(=O)C23)OCO4)cc(OC)c1OC (centres unmarked) [Compound 4-TG-PTOX] | 4.4 ± 1.55 µM | 0.57 ± 0.92 µM | 0.3 ± 0.34 µM | 13.5 ± 2.41 µM | anti-microtubule activity was observed; also recorded: inhibited tubulin polymerization | < 1 µM | 6.2 µM | not damaged | arrested after 12 h and strongly arrested after 24 and 48 h | around 80% | ~90% | unaffected | 63% | 67% | – | – | –
4 | COC(=O)Nc1nc2ccc(C(=O)c3cccs3)cc2[nH]1 [Nocodazole, nocodazole] | – | – | – | 8.51 ± 1.73 µM | – | – | – | – | – | – | – | – | – | – | 38.9 ± 3.12 µM | 27.4 ± 2.92 µM | 18.4 ± 3.71 µM
5 | COc1cc([C@@H]2c3cc4c(cc3[C@H](O)[C@H]3COC(=O)[C@H]23)OCO4)cc(OC)c1OC [PTOX, podophyllotoxin] | 18.3 ± 2.22 µM | 20.2 ± 2.75 µM | 8.36 ± 1.42 µM | 4.31 ± 1.46 µM | – | – | – | – | – | – | – | – | – | – | – | – | –
